Test results: paper PMC2113781 (The Journal of Cell Biology, 1985)
Values joined by “and” are separate entries in the source; they are usually repeats but may differ in a detail not shown here. Equal entries are not always repeated.

Experiments:
[1] = tested on: muscarinic cholinergic receptor; format: cell-based, chick
muscarinic binding sites = tested on: muscarinic binding sites; set-up: species or system chick

| Structure (SMILES) | type of antagonism [1] | nH, phenomenological cooperativity model (Hill coefficient) (muscarinic binding sites) | agonistic effect on Ca2+ mobilization [1] | Effect relative to acetylcholine [1] | RH, two-sites model (muscarinic binding sites) | RL, two-sites model (muscarinic binding sites) |
| --- | --- | --- | --- | --- | --- | --- |
| CN1CCN(CC(=O)N2c3ccccc3C(=O)Nc3cccnc32)CC1 [Pirenzepine, pirenzepine] | reversible competitive antagonists | 1.31 |  |  |  |  |
| CC[C@@H]1C(=O)OC[C@@H]1Cc1cncn1C [Pilocarpine, pilocarpine] | reversible competitive antagonists | 0.68 | No reaction |  |  |  |
| CN1[C@@H]2CC[C@H]1C[C@@H](OC(=O)C(CO)c1ccccc1)C2 (some centres unmarked) [Atropine, atropine] |  | 0.79 |  |  |  |  |
| O=C1CC[C@](c2ccccc2)(C2CCN(Cc3ccccc3)CC2)C(=O)N1 [Levetimide, levetimide] | reversible competitive antagonists | 0.76 |  |  |  |  |
| O=C1CCCN1CC#CCN1CCCC1 [Oxotremorine, oxotremorine] | reversible competitive antagonists | 0.95 | No reaction |  |  |  |
| C[N+](C)(C)CCOC(N)=O [Carbachol, carbachol] |  | 0.41 | full agonists | 92% | 14.6 pmol/L | 18.4 pmol/L |
| CC(=O)OCC[N+](C)(C)C [Acetylcholine, acetylcholine] |  | 0.41 and 0.39 | full agonists | 100% | 15.3 pmol/L and 20.9 pmol/L | 13.8 pmol/L and 19.4 pmol/L |
| O=C1CC[C@@](c2ccccc2)(C2CCN(Cc3ccccc3)CC2)C(=O)N1 [Dexetimide, dexetimide] | irreversible competitive antagonists | 0.63 |  |  |  |  |
| CC(C[N+](C)(C)C)OC(N)=O (centres unmarked) [Bethanechol, bethanechol] | reversible competitive antagonists | 0.65 | partial agonist | 23% | 9.1 pmol/L | 19.9 pmol/L |
